The source of these data is US4552888A, “Ascorbic acid ethers in angiogene” (Eli Lilly and Company, priority 1983, dated 1985).

One may read the pKa as the negative logarithm of the acid dissociation constant.

Like-named read-outs stand apart in the source and are kept apart here.

One data set relates to angiogenesis factor. Briefly: Inhibition of angiogenesis factor (3683 Morris hepatoma lysosomal-mitochondrial pellet) induced serpentine vessels in mice. To be noted: Mus musculus, ip; for inhibition in vivo at 25 mg/kg: i.p., 24 hours. It is filed as in vivo, mice (SPF/ND4 female). The procedure:
Lysosomal-mitochondrial pellets containing angiogenesis factor are prepared from 3683 Morris hepatoma. The pellet is diluted with 7-8 ml. of 15% ficoll. With this dilution, 8-10 serpentine vessels will be produced per 0.2 cc. injection as described below for the control group.
Next, 15 SPF/ND4 female mice weighing 20-22 g. are shaved on the left side and then divided into three groups of five each. One group (drug group) is injected subcutaneously and laterally with 0.20 cc. of the lysosomal-mitochondrial preparation diluted with 15% ficoll. This group of mice is then dosed individually by the intraperitoneal route with 0.5 cc. of a solution or suspension in a standard vehicle containing the compound under test, usually at an initial dose level of 300 mg./kg. If this dose level is toxic, two-fold dilutions are made until all mice survive a single dose. The second group of mice (control group) is injected subcutaneously and laterally with 0.2 cc. of the lysosomal-mitochondrial suspension diluted with 15% ficoll and dosed intraperitoneally with 0.5 cc. of the vehicle alone. The third group (negative control) is injected with ficoll solution only (no treatment with drug or vehicle). The mice are sacrificed after 24 hours. Each mouse is placed on its side on a dissecting board with the shaved side up. Starting at the flank, the skin is cut straight to the back of the animal. A similar cut is made behind the front leg. Then the skin is cut along the back making a flap of about one inch by two inches. The skin is carefully separated from the connective tissue using forceps and a scalpel. The skin flap is then laid back exposing the lysosomal-mitochondrial implant which is attached to the skin. The skin flap is gently flattened out and with the use of a binocular dissecting scope, serpentine vessels are observed around the lysosomal-mitochondrial implant and their number counted. All observations of the number of serpentine vessels are made at the same power of the microscope (1X). The average number of serpentine vessels for each group is calculated. The percent inhibition is then calculated according to the following equation. [formula] where sv=average number of serpentine vessels.
If the negative control group described above has any serpentine vessels, the test is invalid due to contamination of the ficoll solution.
Table I covers compounds according to formula I above in which R^2 and R^3 are both H, table II covers compounds in which R^2 and R^3 form a 1-methylethylidene group, and Table III compounds in which R^2 plus R^3 equal a benzylidene group or other group.
One of the compounds of this invention, 3-O-n-octadecyl-5,6-O-(1-methylethylidene)-L-ascorbic acid was tested at a series of dose levels for its ability to inhibit tumor angiogenesis and the results of these tests are set forth in Table IV.

For data set [1], the system named is paw swelling caused by Type II collagen. The data set can be described thus: Collagen arthritis assay (type II collagen-induced paw swelling). It is filed as in vivo, inbred Lewis male rats. To be noted: for decrease in paw swelling caused by collagen Type II injection: 15 mg./kg. per os. As to the method:
This test method is a collagen arthritis assay carried out as follows. Type II collagen is isolated from bovine articular cartilage by the method of […] and Nimni [Biochemistry, 10, 3905, (1971)]. The collagen is dissolved in 0.1M acetic acid and stored at -20°. Type II collagen solution is diluted to 2 mg./ml. concentration and emulsified thoroughly with an equal volume of incomplete Freund's adjuvant (ICFA). The emulsion containing approximately 0.5 mg. of collagen is injected intradermally to groups of 6 inbred Lewis male rats (Charles River Breeders; 170-200 g.) at various sites in the dorsal area. The hindpaw volumes of each rat is measured and recorded three times a week throughout the test period to assess the inflammatory reaction. The animals receive compounds under test as suspensions in carboxymethylcellulose vehicle, by oral gavage, 5 days per week (Mon.-Fri.). At the end of the test (day 28 or 30), the blood of these animals is drawn by cardiac puncture and the serum anti-type II collagen antibody levels are estimated by passive hemagglutination technique, using glutaraldehyde treated sheep red cells, to which type II collagen is conjugated [[…] et al., Immunochemistry, 6, 67,1969); Andriopoulos et al., Arth. Rheum., 19, 613, (1976)]. The cellular response or delayed-type hypersensitivity response to type II collagen is measured by the radiometric ear index assay (Kostiala, Immunology, 33, 561, 1977). In certain experiments, the bone damage occurring because of immunization with type II collagen and the effects of drugs are determined from the radiographs of the hindpaws of two or three representative animals from each group. Injections of ICFAs alone were employed to some rats as a negative control.

Another data set in a line: pKa by titration. Type of data set: physicochemical. To be noted: for pKa: read-out: pKa.
Another data set concerns Vitamin C activity. To be noted: orally in aqueous solution; Bezssonoff and Sacrez 1937; cited from earlier work.
Data set [2] relates to Madison (M109) lung carcinoma. The data set can be described thus: Madison lung metastasis assay. Type of data set: in vivo, male BALB/C mice. The procedure:
In addition, the compounds of this invention have found utility as angiogenesis inhibitors in metastatis formation. Such activity has been found in an artificial metastasis model using Madison lung (M 109) carcinoma which metastasizes preferentially to lungs and is not overly sensitive to chemotherapeutic agents. The test is carried out as follows.
The Madison (M109) lung carcinoma is carried as a transplantable line in syngeneic BALB/C mice. This tumor line was obtained from the tumor bank at Mason Research Institute, Worcester, Mass. For tumor metastasis studies, a subcutaneously-grown tumor is aseptically excised, minced into small pieces with a scissors, and gently trypsinized at room temperature to obtain a single cell suspension. The cells are suspended in RPMI-1640 medium (M. A. Bioproducts, Walkersville, MD). Viable M109 cells are determined by trypan blue exclusion, and the cell concentration is determined with a hemocytometer. The cells are adjusted to 1×10^5 viable cells/ml. of medium. M109 cells are injected i.v. into normal, male BALB/C mice. Inoculum volume per mouse is 0.2 ml. (2×10^4 cells). Drugs are administered i.p. to randomized groups of 10 mice 2 days prior to tumor cell inoculation. Controls receive mock injections of 0.5 ml. buffer. Daily mortality is monitored, and median survival times are determined for each group. Cytoxan was employed as a positive control. In the Table, column 1 gives drug treatment and columns 2 and 3 measures number of lesions±standard error per lung on days 30 and 42.
The growth rate and number of lung metastases in the above experiment were less than usual. A new transplant line was employed in a second determination with lung lesions developing earlier. Table 6 records the results of this experiment; here ascorbic acid was employed as the control drug.

The next data set relates to Morris hepatoma (5123D). Briefly: Growth/induction of transplanted Morris hepatoma (5123D) in ICFA-treated rats. Type of data set: in vivo. To be noted: 10-100 mg. once or twice a day orally. As to the method:
Another laboratory test involving angiogenesis or neovascularization is based on the time period required for a differentiated tumor to become undifferentiated (vascularized). An inflammatory response enhances tumor growth and reduces the lag phase. In this test, rats are injected with a test drug (30 minutes prior to dosing) with ICFA (incomplete Freund's adjuvant) plus India ink intradermally in a shaved area on a rat's back, thus providing a marked injection site. After 3 days of twice daily administration of the test drug followed 30 minutes later by administration of ICFA, the tumor is transplanted on the periphery of the marked injection site. The animals are weighed and the tumor size determined (length+width/2) at weekly intervals for 4 weeks. Morris hepatoma (5123D) was used as the […] tumor.
0.5 cc. of ICFA were also given once or twice daily subcutaneously to each test rat.

The mark [3] stands for this setting: 24 h, Table 1, read-out: average % inhibition (serpentine vessels).
Where [4] appears, read: oral 50 mg./kg., one experiment.
Where [5] appears, read: Table 6, 16 day, new transplant line, 100 mg./kg., Emulphor control 69.8 ± 10.4.

In the case of `CC1(C)OC[C@@H]([C@H]2OC(=O)C(OCc3ccc(C#N)cc3)=C2OCc2ccc(C#N)cc2)O1` [2,3-bis(O-4-cyanobenzyl)-5,6-O-(1-methylethylidene)-L-ascorbic acid], the inhibition in vivo at 25 mg/kg with angiogenesis factor (24 h, Table 2, read-out: % inhibition (serpentine vessels)) lay within 36 to 91%. In addition, the “decrease in paw swelling caused by collagen Type II injection” value (“decrease in paw swelling caused” below) in data set [1] was “substantial decreases in paw swelling”. Also, the titratable group result in “pKa by titration” is “No titratable groups”.
As for `CCCCCCCCCCCCCCCCCCOC1=C(OCCCCCCCCCCCCCCCCCC)[C@@H]([C@@H](O)CO)OC1=O` [2,3-di-(-O-n-octadecyl)-L-ascorbic acid], in the data set with angiogenesis factor (setting [3]), the inhibition in vivo at 25 mg/kg stood at 52%. In data set [1] (12.5 and 25 mg./kg.), the “decrease of paw volumes” value is 33-67%.
With `COC1=C(OC)C(C(O)CO)OC1=O` (stereo not shown) [2,3-dimethylascorbic acid], in the data set with Vitamin C activity, the “Vitamin C activity” value is listed as “devoid of Vitamin C activity”.
On to `O=C1O[C@H]([C@@H](O)CO)C(OCc2cccc(C(F)(F)F)c2)=C1O` [3-O-(3-trifluoromethylbenzyl)-L-ascorbic acid], for which the “paw volumes vs ICFA controls” value in data set [1] (25 mg./kg.) was “substantially the same as ICFA controls”.
As for `CC1(C)OC[C@@H]([C@H]2OC(=O)C(O)=C2OCCCCC#N)O1` [3-O-(4-cyanobutyl)-5,6-O-(1-methylethylidene)-L-ascorbic acid], the “decrease in paw swelling caused” value in data set [1] was “substantial decreases in paw swelling”. The pKa in “pKa by titration” came out at 10.4.
In the data set with angiogenesis factor (24 h, Table 2), `CC1(C)OC[C@@H]([C@H]2OC(=O)C(O)=C2OCc2ccc([N+](=O)[O-])cc2)O1` [3-O-(4-nitrobenzyl)-5,6-O-(1-methylethylidene)-L-ascorbic acid] displayed an inhibition in vivo at 150 mg/kg of 42 to 85%. For the same compound, the pKa in “pKa by titration” came to 10.1.
Consider `CC1(C)OC[C@@H]([C@H]2OC(=O)C(O)=C2OCCCCCCCCCCCO)O1` [3-O-(11-hydroxyundecyl)-5,6-O-(1-methylethylidene)-L-ascorbic acid], for which the inhibition in vivo at 150 mg/kg with angiogenesis factor (24 h, Table 2) is 67%. For the same compound, the pKa in “pKa by titration” amounted to 10.8.
For `CCCCCCCCCCCCCCCCCOC1=C(O)C(=O)O[C@@H]1[C@@H](O)CO` [3-O-n-heptadecyl-L-ascorbic acid], the “decrease in paw swelling caused” value in data set [1] is on record as “substantial decreases in paw swelling”.
Regarding `CCCCCCCCCCCCCCCCOC1=C(O)C(=O)O[C@@H]1[C@@H](O)CO` [3-O-n-hexadecyl)-L-ascorbic acid], the inhibition in vivo at 25 mg/kg with angiogenesis factor (setting [3]) came out at 31%. Further, the pKa in the data set “pKa by titration” came to 11.1.
The compound `CCCCCCCCCCCCCCCCCCOC1=C(O)C(=O)O[C@@H]1[C@@H]1COC(C)(C)O1` [3-O-n-octadecyl-5,6-O-(1-methylethylidene)-L-ascorbic acid] registered an inhibition in vivo at 30 mg/kg in the data set on angiogenesis factor (Table 4, intraperitoneal dose 30 mg./kg., individual results) of 58%. In the data set with angiogenesis factor (Table 4, intraperitoneal dose 120 mg./kg., individual results), the inhibition in vivo at 120 mg/kg came out at 66%. Further, the inhibition in vivo at 240 mg/kg with angiogenesis factor (Table 4, intraperitoneal dose 240 mg./kg., individual results) worked out at 71%. In addition, the “paw volumes vs negative control levels” value in data set [1] (50 mg./kg., other runs) was “indistinguishable from negative control levels”. The “inhibition of the swelling of the paw” value in data set [1] (setting [4]) was “about 50%”. In addition, the pKa in the data set “pKa by titration” was found to be 11.4.
For the compound `CCCCCCCCCCCCCCCCCCOC1=C(O)C(=O)O[C@@H]1[C@@H](O)CO` [3-O-n-octadecyl-L-ascorbic acid], the “Mean No. of Lesions ± S.E./Lung” value in data set [2] (Table 5, Day 30, 35 mg./kg. i.p., Emulphor control 15.8 ± 4.6) was 1.8 ± 1.2 Lesions/Lung; in data set [2] (Table 5, Day 42, 35 mg./kg. i.p., Emulphor control 20.6 ± 1.8), 18.6 ± 1.3 Lesions/Lung; in data set [2] (Table 6, 16 day, new transplant line, 30 mg./kg., Emulphor control 69.8 ± 10.4), 10.7 ± 3.4 Lesions/Lung; in data set [2] (setting [5]) it was 13.0 ± 5.1 Lesions/Lung. Besides, the “growth of the undifferentiated tumor” value with Morris hepatoma (5123D) (alternative outcome to delayed induction) is listed as “inhibited the growth of the undifferentiated tumor”. Further, in the data set with Morris hepatoma (5123D) (alternative outcome to growth inhibition), the “delay of tumor induction” value was in the range of 4 to 7 days. In addition, in data set [1] (12.5 mg./kg.), the “decrease of paw volumes” value was “about 25%”. Also, the “paw volumes vs controls” value in data set [1] (17.5 mg./kg.) was “indistinguishable from controls”. Besides, the “decrease of paw volume vs positive controls (collagen, no drug)” value in data set [1] (50 mg./kg., other runs) is listed as 90-100%. For the same compound, the “paw volumes vs ICFA-treated rats (negative controls)” value in data set [1] (setting [4]) is recorded as “not substantially different from those of the ICFA-treated rats”.
Regarding `CC1(C)OC[C@@H]([C@H]2OC(=O)C(O)=C2O)O1` [5,6-O-(1-methylethylidene)-L-ascorbic acid], in the data set with angiogenesis factor (24 h, Table 2, dose 10 mg./kg.), the inhibition in vivo at 10 mg/kg stood at 48%. In addition, the pKa in “pKa by titration” came to 6.1.
As for `CCCCCCCCCCC1(C)OC[C@@H]([C@H]2OC(=O)C(O)=C2O)O1` (stereo partly drawn) [5,6-O-(1-n-decylethylidene)-L-ascorbic acid], the “decrease in paw swelling caused” value in data set [1] is on record as “substantial decreases in paw swelling”.
`O=P1(N(CCCl)CCCl)NCCCO1` (stereo not shown) [Cytoxan, reference compound]: the “Mean No. of Lesions ± S.E./Lung” value in data set [2] (Table 5, Day 30, 30 mg./kg. i.p. every 4th day starting on day 12, Emulphor control 15.8 ± 4.6) is recorded as 8.4 ± 1.5 Lesions/Lung.
In the case of `O=C1O[C@H]([C@@H](O)CO)C(O)=C1O` [ascorbic acid], the “Mean No. of Lesions ± S.E./Lung” value in data set [2] (setting [5]) is 33.8 ± 9.6 Lesions/Lung.
